Converted amounts (≈) assume the structure as drawn.
Tests used:
[1] = Saturation solubility of Gemcitabine free base in various solvents; format: physicochemical; conditions: for solubility: thermodynamic from solid
From the text: In order to select a biocompatible solvent for the development of in situ depot, we carried out saturation solubility of Gemcitabine free base in 12 different organic solvent which are safe to be used for subcutaneous administration in mice. […] However, since NMP is already used in marketed in situ depot formulations and is FDA approved, we used it as a biocompatible solvent to prepare the various polymeric solutions.

[2] = test system: MIAPACA-2 xenograft tumors; format: in vivo; conditions: s.c. depot every 3rd day, four doses, Gem 10 mg/kg, Zeb 76 mg/kg
Experimental: All experiments were done in accordance with the guidelines of the Institutional Animal Care and Use Committee (IACUC) at St John's university. MiaPaca-2 pancreatic cancer cells were maintained in DMEM medium supplemented with 100 U/mL penicillin, 1% streptomycin, 10% fetal bovine serum (FBS), in a humidified 5% CO2 atmosphere at 37° C. After acclimation for 7 days, mice were subcutaneously (s.c.) injected in the right flank with Matrigel (BD Biosciences, San Jose, CA, USA) containing 1.5×10^6 MiaPaca-2 cells. The mice were monitored closely for tumor growth by palpation and visual examination. Palpable and measurable tumors were found beginning 5-7 days after cells were injected. Tumor volume was calculated using the equation: tumor volume=(length×width×height)/2. Once the tumors reached a size of 80-120 mm^3 mice were randomly divided into 4 groups to receive s.c. injection (N=6 in each group) of respective in situ depot formulation.
Total four doses of each formulation were given. A syringe with 27G needle was used to administer 10 ul of depot formulation. Post administration, the syringe was left in the same position for 30 sec in order to obviate the sudden leakage of formulation and to facilitate the gelling of entire volumes of formulations at 37° C. Measurements of tumor size and body weight was taken every alternate day using digital calipers. […]

## Nc1ccn([C@@H]2O[C@H](CO)[C@@H](O)C2(F)F)c(=O)n1 [Gemcitabine free base, Gemcitabine]
[1]; N,N-dimethylacetamide (DMA), organic solvent or mixture, saturation solubility in N,N Dimethylacetamide (DMA)
  solubility: ~616 mg/mL (≈ 2340 mM)
[1]; N-methyl pyrrolidone (NMP), organic solvent or mixture, saturation solubility in N-methyl pyrrolidone (NMP)
  solubility: ~470 mg/mL (≈ 1790 mM)
[1]; diglyme, organic solvent or mixture, saturation solubility in Diglyme
  solubility: 3.81 ± 0.63 mg/mL (≈ 14.5 mM)
[1]; ethyl lactate, organic solvent or mixture, saturation solubility in Ethyl lactate
  solubility: 18.4 ± 0.34 mg/mL (≈ 69.7 mM)
[1]; glycerol formal, organic solvent or mixture, saturation solubility in Glycerol formal
  solubility: 104 ± 2.03 mg/mL (≈ 397 mM)
[1]; isosorbide dimethyl ether, organic solvent or mixture, saturation solubility in Isosorbide dimethyl ether
  solubility: 8.39 ± 0.4 mg/mL (≈ 31.9 mM)
[1]; polyethylene glycol 300, organic solvent or mixture, saturation solubility in Polyethylene glycol 300
  solubility: 185 ± 13.3 mg/mL (≈ 703 mM)
[1]; polyethylene glycol 400, organic solvent or mixture, saturation solubility in Polyethylene glycol 400
  solubility: 151 ± 2.89 mg/mL (≈ 572 mM)
[1]; propylene glycol, organic solvent or mixture, saturation solubility in Propylene glycol
  solubility: 160 ± 8.29 mg/mL (≈ 609 mM)
[1]; saturation solubility in N-methyl pyrrolidone (NMP)
  Solubility of Gemcitabine free base: 470.70 ± 3.56 mg/mL
[1]; solketal, organic solvent or mixture, saturation solubility in Solketal
  solubility: 17.73 ± 0.008 mg/mL (≈ 67.4 mM)
[1]; tetraglycol/glycofurol, organic solvent or mixture, saturation solubility in Tetraglycol/Glycofurol
  solubility: 129 ± 1.49 mg/mL (≈ 492 mM)
[1]; tetrahydrofurfuryl alcohol, organic solvent or mixture, saturation solubility in Tetrahydrofurfuryl alcohol
  solubility: 221 ± 4.97 mg/mL (≈ 841 mM)
[1]; water, saturation solubility in Water
  solubility: 21.8 ± 1.44 mg/mL (≈ 82.9 mM)
[2]; FIG. 3(a)
  Antitumor efficacy (tumor volume): decreased the tumor volume
[2]; FIG. 3(c)
  Median survival: around 18 days

Reference: patent US20250127806A1, “INJECTABLE LIQUID PHARMACEUTICAL COMPOSITION CONTAINING GEMCITABINE AND A CYTIDINE DEAMINASE INHIBITOR” (ST. JOHN'S UNIVERSITY, priority 2021, published 2025)
